Results as given in the supplement of paper PMC10307832.

How the values were obtained:
Assay in all cases: relative viability (nuclei count vs DMSO), 5 days (fraction); higher = more cells survive
[1] = compound: Cc1ccc(Nc2nccc(N(C)c3ccc4c(C)n(C)nc4c3)n2)cc1S(N)(=O)=O [Pazopanib] + CC(C)C[C@H](NC(=O)[C@H](Cc1ccccc1)NC(=O)c1cnccn1)B(O)O [Bortezomib] (partner 0.002 µM)
Summary of the method: (§1)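 After 5 days of treatment, lung cancer cells in 1536-well plates were fixed and stained in a single step (final 0.05% Triton X-100, 1% formaldehyde, 1 ug/ml Hoechst) and their nuclei counted on 4× images. Treatment had been applied by pin tool the day after seeding as one drug alone or as a fixed anchor-drug dose with five library-drug doses (not always all listed) in √10 steps. Relative viability is the nuclei count of treated wells divided by that of vehicle wells, and values are medians of duplicate plates.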

[2] = compound: Cc1ccc(C(=O)Nc2ccc(CN3CCN(C)CC3)c(C(F)(F)F)c2)cc1C#Cc1cnc2cccnn12 [Ponatinib] + C[C@@H](Oc1cc(-c2cnn(C3CCNCC3)c2)cnc1N)c1c(Cl)ccc(F)c1Cl [Crizotinib] (partner 1 µM)
Summary of the method: as §1

[3] = compound: Cc1ccc(Nc2nccc(N(C)c3ccc4c(C)n(C)nc4c3)n2)cc1S(N)(=O)=O [Pazopanib] + O=C(CCCCCCC(=O)Nc1ccccc1)NO [Vorinostat] (partner 1 µM)
Summary of the method: as §1

[4] = compound: Cc1ccc(C(=O)Nc2ccc(CN3CCN(C)CC3)c(C(F)(F)F)c2)cc1C#Cc1cnc2cccnn12 [Ponatinib] + CC(=O)c1c(C)c2cnc(Nc3ccc(N4CCNCC4)cn3)nc2n(C2CCCC2)c1=O [Palbociclib] (partner 0.5 µM)
Summary of the method: as §1

HCC-366
relative viability ([1]; first compound 0.01 µM): 0.954 | relative viability ([1]; first compound 0.03162 µM): 1.07 | relative viability ([1]; first compound 0.1 µM): 1.02 | relative viability ([1]; first compound 0.3162 µM): 0.973 | relative viability ([1]; first compound 1 µM): 1.09 | relative viability ([2]; first compound 0.002 µM): 0.474 | relative viability ([2]; first compound 0.006325 µM): 0.506 | relative viability ([2]; first compound 0.06325 µM): 0.531 | relative viability ([2]; first compound 0.2 µM): 0.519 | relative viability ([3]; first compound 0.01 µM): 0.239 | relative viability ([3]; first compound 0.03162 µM): 0.336 | relative viability ([3]; first compound 0.1 µM): 0.414 | relative viability ([3]; first compound 0.3162 µM): 0.379 | relative viability ([3]; first compound 1 µM): 0.81 | relative viability ([4]; first compound 0.002 µM): 0.339 | relative viability ([4]; first compound 0.006325 µM): 0.361 | relative viability ([4]; first compound 0.06325 µM): 0.423 | relative viability ([4]; first compound 0.2 µM): 0.361

HCC-827
relative viability ([1]; first compound 0.01 µM): 0.963 | relative viability ([1]; first compound 0.03162 µM): 1.06 | relative viability ([1]; first compound 0.1 µM): 1.06 | relative viability ([1]; first compound 0.3162 µM): 1.05 | relative viability ([1]; first compound 1 µM): 1.03 | relative viability ([2]; first compound 0.002 µM): 0.819 | relative viability ([2]; first compound 0.006325 µM): 0.964 | relative viability ([2]; first compound 0.06325 µM): 0.924 | relative viability ([2]; first compound 0.2 µM): 0.928 | relative viability ([3]; first compound 0.01 µM): 0.895 | relative viability ([3]; first compound 0.03162 µM): 0.839 | relative viability ([3]; first compound 0.1 µM): 0.843 | relative viability ([3]; first compound 0.3162 µM): 0.922 | relative viability ([3]; first compound 1 µM): 0.785 | relative viability ([4]; first compound 0.002 µM): 0.537 | relative viability ([4]; first compound 0.006325 µM): 0.483 | relative viability ([4]; first compound 0.06325 µM): 0.533 | relative viability ([4]; first compound 0.2 µM): 0.497

HOP-62
relative viability ([1]; first compound 0.01 µM): 0.642 | relative viability ([1]; first compound 0.03162 µM): 0.724 | relative viability ([1]; first compound 0.3162 µM): 0.935 | relative viability ([1]; first compound 1 µM): 0.923 | relative viability ([2]; first compound 0.002 µM): 0.876 | relative viability ([2]; first compound 0.006325 µM): 0.94 | relative viability ([2]; first compound 0.06325 µM): 0.901 | relative viability ([2]; first compound 0.2 µM): 0.917 | relative viability ([3]; first compound 0.01 µM): 0.494 | relative viability ([3]; first compound 0.03162 µM): 0.584 | relative viability ([3]; first compound 0.1 µM): 0.474 | relative viability ([3]; first compound 0.3162 µM): 0.656 | relative viability ([3]; first compound 1 µM): 0.496 | relative viability ([4]; first compound 0.002 µM): 0.378 | relative viability ([4]; first compound 0.006325 µM): 0.374 | relative viability ([4]; first compound 0.06325 µM): 0.334 | relative viability ([4]; first compound 0.2 µM): 0.376

IA-LM
relative viability ([1]; first compound 0.01 µM): 0.889 | relative viability ([1]; first compound 0.03162 µM): 1.05 | relative viability ([1]; first compound 0.1 µM): 0.77 | relative viability ([1]; first compound 0.3162 µM): 0.797 | relative viability ([1]; first compound 1 µM): 0.597 | relative viability ([2]; first compound 0.002 µM): 0.6 | relative viability ([2]; first compound 0.006325 µM): 0.737 | relative viability ([2]; first compound 0.06325 µM): 0.887 | relative viability ([2]; first compound 0.2 µM): 0.7 | relative viability ([3]; first compound 0.03162 µM): 0.977 | relative viability ([3]; first compound 0.1 µM): 1.1 | relative viability ([3]; first compound 0.3162 µM): 0.964 | relative viability ([3]; first compound 1 µM): 0.945

LC-2-ad
relative viability ([1]; first compound 0.01 µM): 0.977 | relative viability ([1]; first compound 0.03162 µM): 1.08 | relative viability ([1]; first compound 0.1 µM): 1.02 | relative viability ([1]; first compound 0.3162 µM): 0.956 | relative viability ([1]; first compound 1 µM): 1.12 | relative viability ([2]; first compound 0.002 µM): 0.482 | relative viability ([2]; first compound 0.006325 µM): 0.417 | relative viability ([2]; first compound 0.06325 µM): 0.418 | relative viability ([2]; first compound 0.2 µM): 0.421 | relative viability ([3]; first compound 0.01 µM): 0.697 | relative viability ([3]; first compound 0.03162 µM): 0.719 | relative viability ([3]; first compound 0.1 µM): 0.732 | relative viability ([3]; first compound 0.3162 µM): 0.771 | relative viability ([3]; first compound 1 µM): 0.732 | relative viability ([4]; first compound 0.002 µM): 0.474 | relative viability ([4]; first compound 0.006325 µM): 0.448 | relative viability ([4]; first compound 0.06325 µM): 0.359 | relative viability ([4]; first compound 0.2 µM): 0.347

LCLC-97TM1
relative viability ([1]; first compound 0.01 µM): 0.506 | relative viability ([1]; first compound 0.03162 µM): 0.693 | relative viability ([1]; first compound 0.1 µM): 0.482 | relative viability ([1]; first compound 0.3162 µM): 0.737 | relative viability ([1]; first compound 1 µM): 0.592 | relative viability ([2]; first compound 0.006325 µM): 0.369 | relative viability ([2]; first compound 0.2 µM): 0.413 | relative viability ([3]; first compound 0.03162 µM): 0.877 | relative viability ([3]; first compound 0.1 µM): 0.58 | relative viability ([3]; first compound 0.3162 µM): 0.797 | relative viability ([3]; first compound 1 µM): 0.736 | relative viability ([4]; first compound 0.002 µM): 0.233 | relative viability ([4]; first compound 0.006325 µM): 0.239 | relative viability ([4]; first compound 0.06325 µM): 0.252 | relative viability ([4]; first compound 0.2 µM): 0.221

LCLC-103H
relative viability ([1]; first compound 0.01 µM): 0.942 | relative viability ([1]; first compound 0.03162 µM): 0.869 | relative viability ([1]; first compound 0.1 µM): 1.11 | relative viability ([1]; first compound 0.3162 µM): 1.04 | relative viability ([1]; first compound 1 µM): 1.24 | relative viability ([2]; first compound 0.002 µM): 1.03 | relative viability ([2]; first compound 0.006325 µM): 1.13 | relative viability ([2]; first compound 0.06325 µM): 1.17 | relative viability ([2]; first compound 0.2 µM): 1.03 | relative viability ([3]; first compound 0.01 µM): 0.692 | relative viability ([3]; first compound 0.03162 µM): 0.804 | relative viability ([3]; first compound 0.1 µM): 0.753 | relative viability ([3]; first compound 0.3162 µM): 0.823 | relative viability ([3]; first compound 1 µM): 0.842 | relative viability ([4]; first compound 0.002 µM): 0.464 | relative viability ([4]; first compound 0.006325 µM): 0.517 | relative viability ([4]; first compound 0.06325 µM): 0.491 | relative viability ([4]; first compound 0.2 µM): 0.431

LK-2
relative viability ([2]; first compound 0.002 µM): 0.26 | relative viability ([2]; first compound 0.006325 µM): 0.217 | relative viability ([2]; first compound 0.06325 µM): 0.234 | relative viability ([2]; first compound 0.2 µM): 0.269 | relative viability ([3]; first compound 0.01 µM): 0.201 | relative viability ([3]; first compound 0.03162 µM): 0.26 | relative viability ([3]; first compound 0.1 µM): 0.252 | relative viability ([3]; first compound 0.3162 µM): 0.236 | relative viability ([3]; first compound 1 µM): 0.235 | relative viability ([4]; first compound 0.002 µM): 0.643 | relative viability ([4]; first compound 0.006325 µM): 0.744 | relative viability ([4]; first compound 0.06325 µM): 0.768 | relative viability ([4]; first compound 0.2 µM): 0.757

LOU-NH91
relative viability ([1]; first compound 0.01 µM): 0.484 | relative viability ([1]; first compound 0.03162 µM): 0.481 | relative viability ([1]; first compound 0.1 µM): 0.496 | relative viability ([1]; first compound 0.3162 µM): 0.475 | relative viability ([1]; first compound 1 µM): 0.506 | relative viability ([2]; first compound 0.002 µM): 0.709 | relative viability ([2]; first compound 0.006325 µM): 0.777 | relative viability ([2]; first compound 0.06325 µM): 0.758 | relative viability ([2]; first compound 0.2 µM): 0.731 | relative viability ([3]; first compound 0.01 µM): 0.873 | relative viability ([3]; first compound 0.03162 µM): 0.964 | relative viability ([3]; first compound 0.1 µM): 0.917 | relative viability ([3]; first compound 0.3162 µM): 1.02 | relative viability ([3]; first compound 1 µM): 0.942 | relative viability ([4]; first compound 0.002 µM): 0.587 | relative viability ([4]; first compound 0.006325 µM): 0.531 | relative viability ([4]; first compound 0.06325 µM): 0.528 | relative viability ([4]; first compound 0.2 µM): 0.549

LU99A
relative viability ([1]; first compound 0.01 µM): 0.913 | relative viability ([1]; first compound 0.03162 µM): 1.18 | relative viability ([1]; first compound 0.1 µM): 1.18 | relative viability ([1]; first compound 0.3162 µM): 1.25 | relative viability ([1]; first compound 1 µM): 1.25 | relative viability ([2]; first compound 0.002 µM): 0.512 | relative viability ([2]; first compound 0.006325 µM): 0.53 | relative viability ([2]; first compound 0.06325 µM): 0.564 | relative viability ([2]; first compound 0.2 µM): 0.59 | relative viability ([3]; first compound 0.03162 µM): 0.493 | relative viability ([3]; first compound 0.1 µM): 0.459 | relative viability ([3]; first compound 0.3162 µM): 0.545 | relative viability ([3]; first compound 1 µM): 0.554 | relative viability ([4]; first compound 0.002 µM): 0.37 | relative viability ([4]; first compound 0.006325 µM): 0.433 | relative viability ([4]; first compound 0.06325 µM): 0.407 | relative viability ([4]; first compound 0.2 µM): 0.363
